These results are taken from article PMC3746205, “Two mixed-NH3/amine platinum (II) anticancer complexes featuring a dichloroacetate moiety in the leaving group” (Scientific Reports, 2013).

As a reminder, the IC50 is the concentration that gives 50% inhibition.

Series [1] has as its system BEAS-2B normal lung epithelial cells. The series is described as follows: MTS cytotoxicity assay, BEAS-2B. It is filed as cell-based, human. Conditions: read-out: IC50 (mean ± SD). The method, then:
(§1) Human lung cancer (A549), human normal lung epithelial cell line (BEAS-2B), human stomach cancer (SGC-7901) and human ovarian cancer (SK-OV-3) were purchased from ATCC, whereas cisplatin-resistant SK-OV-3 cells (SK-OV-3/DDP) were kindly provided by Chinese Academy of Medical Sciences (Beijing, China). Cells were grown in DMEM or RPMI-1640 medium (Hyclone, USA) containing 10% fetal bovine serum. Both media were supplemented with 100 units/ml of penicillin and 100 μg/ml of streptomycin. Cells were maintained at 37°C in a humidified incubator with an atmosphere of 5% CO2.
(§2) Cytotoxicity was determined by performing MTS assay. Briefly, 100 μl of cells suspension were seeded in 96-well cell culture plates and allowed to adhere overnight. The cells were treated with drugs for 48 hours, and then 20 μl of CellTiter 96® AQueous One Solution Reagent (Promega, Madison, USA) was added and the cells were further incubated at 37°C for 1–2 h. Cell viability was measured by reading the absorbance at a wavelength of 490 nm. Concentrations of 50% inhibition of growth (IC50) were calculated on the basis of the relative survival curve.
(In general: Tetrazolium dyes change colour on reduction, which living cells bring about.)

The subject of series [2] is A549 cells (non-small cell lung carcinoma). Briefly: MTS cytotoxicity assay, A549. Conditions: read-out: IC50 (mean ± SD). The series is classed as cell-based, human. On the procedure:
as §1, §2

Series [3] deals with SGC-7901 cells (gastric carcinoma). Briefly: MTS cytotoxicity assay, SGC-7901. It is filed as cell-based, human. Conditions: read-out: IC50 (mean ± SD). The method, then: as §1, §2
Series [4] concerns SK-OV-3 cells (ovarian carcinoma). The series is described as follows: MTS cytotoxicity assay, SK-OV-3. The series is classed as cell-based, human. The settings on record: read-out: IC50 (mean ± SD). The method, then: as §1, §2
A short description of a further series: Solubility in solvents. The series is classed as physicochemical.
Series [5] concerns BEAS-2B normal human lung bronchial epithelial cells. The series is described as follows: Cell apoptosis assay (Annexin-V-FITC/Propidium iodide, flow cytometry), BEAS-2B. The series is classed as cell-based. The settings on record: t = 24 h, n = 3. The method, then: (§3) Human lung cancer (A549), human normal lung epithelial cell line (BEAS-2B), human stomach cancer (SGC-7901) and human ovarian cancer (SK-OV-3) were purchased from ATCC, whereas cisplatin-resistant SK-OV-3 cells (SK-OV-3/DDP) were kindly provided by Chinese Academy of Medical Sciences (Beijing, China). Cells were grown in DMEM or RPMI-1640 medium (Hyclone, USA) containing 10% fetal bovine serum. Both media were supplemented with 100 units/ml of penicillin and 100 μg/ml of streptomycin. Cells were maintained at 37°C in a humidified incubator with an atmosphere of 5% CO2. To analyze the cells for apoptosis, cells were plated and allowed to adhere overnight. Cells were treated with drugs indicated for 24 hours and then analyzed for apoptosis using Annexin-V-FITC/Propidium iodide staining. Cells were trypsinized, pelleted, washed in PBS, and resuspended in 1×binding buffer containing Annexin-V-FITC and propidium iodide (BD Pharmingen) according to the manufacturer's instructions. The samples were analyzed for the apoptosis using a FACSCalibur flow cytometer (BD Biosciences, Franklin Lakes, NJ).
On the technique in general: In flow cytometry, cells or beads pass a laser one at a time.

The subject of series [6] is cisplatin-resistant SK-OV-3 cells (SK-OV-3/DDP). The series is described as follows: MTS cytotoxicity assay, cisplatin-resistant SK-OV-3/DDP. The series is classed as cell-based, human. Conditions: for IC50: SK-OV-3/DDP cisplatin-resistant, MTS, t = 48 h, n = 3, read-out: IC50 (mean ± SD); for Resistance Index: ratio of IC50 value of resistant cells (SK-OV-3/DDP) to that of sensitive cells (SK-OV-3). On the procedure: Cross-resistance profile of the complexes 1a and 2a was evaluated. Resistance Index was defined as the ratio of IC50 value of resistant cells to that of sensitive cells. SK-OV-3 and cisplatin-resistant SK-OV-3 cells (SK-OV-3/DDP) cell lines were chosen for MTS assay because drug resistance frequently occurred in the chemotherapy of ovarian tumors. […] The results may be attributed to the synergistic effect between the platinum pharmacophores and DCA released by the hydrolysis of 1a and 2a in the cells.
as §1, §2

A short description of another series: Hydrolysis rate by HPLC. The settings on record: 1:10 (v/v) solution of water and methanol, within 4 hours. The series is classed as physicochemical. On the procedure: Both complexes were nearly insoluble in water or ethanol (≈0.1 mg/ml) and slightly soluble in methanol and DMSO, but soluble in polyethyleneglycol 400 which was chosen as the solvent to make the stock solutions of the complexes for the following biological testing. The hydrolysis rate of the complexes in 1:10 (v/v) solution of water and methanol determined by HPLC was less than 2% within 4 hours and the hydrolysis products were, as expected, dichloroacetate and 1b for complex 1a, or 2b for complex 2a. Complexes 1b and 2b were also synthesized for comparison in HPLC measurements as well as in biological tests. As 1b and 2b were found very soluble in water (>25 mg/ml) compared with 1a or 2a, another synthetic reaction was employed to produce the desired complexes. Accordingly complexes 1b and 2b also have two positional isomeric forms. All the complexes used in our studies were, in fact, a mixture of two isomeric forms.
An Agilent Zorbax SB-C18 column (4.6 × 250 mm, 5 μm) was used with CH3OH/H2O as the mobile phase. The flow rate was 1.0 ml/min, and the column temperature is 40°C. The detection wavelength was 238 nm and the injection volume was 10 μl.

The next series relates to A549 cells. The series is described as follows: Cell apoptosis assay (Annexin-V-FITC/Propidium iodide, flow cytometry), A549. The settings on record: t = 24 h, n = 3. The series is classed as cell-based, human. On the procedure: as §3
[7] abbreviates: BEAS-2B normal cells, MTS, t = 48 h, n = 3.
[8] abbreviates: SK-OV-3, MTS, t = 48 h, n = 3, Table 1.
Setting [9] is: SK-OV-3 (sensitive), MTS, t = 48 h, n = 3, Table 3 cross-resistance experiment.

Values joined by “and” are separate entries in the source; they are usually repeats but may differ in a detail not shown here. Equal values may be shown once. Read-outs that look alike come from different tables or passages of the source. A value given as a limit tells only on which side of the number the result lay.

For `O=C(O)C(Cl)Cl` [DCA, Dichloroacetate], the concentration for half-maximal inhibition (IC50) is more than 200 µM in [1] (Homo sapiens, BEAS-2B, 48 h); more than 200 µM in series [2] (Homo sapiens, A549, 48 h); more than 200 µM in [3] (Homo sapiens, SGC-7901, 48 h); more than 200 µM in [4] (Homo sapiens, SK-OV-3, 48 h).

Take `N.NC1CCCCC1.O=C1[O][Pt][O]C(=O)C12CC(O)C2` [Complex 2b]: the IC50 in [1] (setting [7]) turned out to be 75 ± 4.83 µM; in series [2] (A549, MTS, t = 48 h, n = 3), 71.5 ± 5.21 µM; in [3] (SGC-7901, MTS, t = 48 h, n = 3) it was 69.5 ± 2.31 µM; in series [4] (setting [8]) it was 78.2 ± 1.85 µM. The same molecule returned a Solubility in water in “Solubility in solvents” of more than 25 mg/mL.

On to `N.NC1CCCC1.O=C(OC1CC2(C1)C(=O)[O][Pt][O]C2=O)C(Cl)Cl` [Complex 1a], for which the 50% inhibitory concentration (IC50) in [1] (setting [7]) was 61.5 ± 1.5 µM; in series [2] (A549, MTS, t = 48 h, n = 3) it was 17.1 ± 1.55 µM; in series [6] it was 18.1 ± 2.41 µM; in [3] (SGC-7901, MTS, t = 48 h, n = 3) it was 21.9 ± 1.96 µM; in series [4] (setting [9]), 17.8 ± 3.97 µM; in series [4] (setting [8]), 18.1 ± 0.85 µM. Moreover, the “Apoptosis, % (mean ± SD)” value was 0.71 ± 0.45% in series [5] (12.5 μM); 1.24 ± 1.73% in series [5] (25 μM); 1.27 ± 0.92% in series [5] (50 μM); 2.88% and 2.88 ± 2.15% in [5] (100 μM); 18.93% and 18.93 ± 3.83% in the series with A549 cells (A549, 12.5 μM); 26.76 ± 2.33% in the series with A549 cells (A549, 25 μM). Further, the “Apoptosis, % (mean ± SD)” value in the series on A549 cells (A549, 50 μM) came to 40.93 ± 9.66%; in the series with A549 cells (A549, 100 μM), 67.46 ± 8.06%. For the same molecule, the “Resistance Index” value in series [6] is recorded as “≈1”. In addition, the Hydrolysis rate result in the series “Hydrolysis rate by HPLC” is “less than 2%”.

`N.NC1CCCCC1.O=C(OC1CC2(C1)C(=O)[O][Pt][O]C2=O)C(Cl)Cl` [Complex 2a]: the IC50 in [1] (setting [7]) came to 52.1 ± 3.12 µM; in series [2] (A549, MTS, t = 48 h, n = 3), 15.3 ± 1.12 µM; in series [6], 11.1 ± 0.63 µM; in series [3] (SGC-7901, MTS, t = 48 h, n = 3), 16.7 ± 0.82 µM; in [4] (setting [9]), 10.1 ± 2.38 µM; in series [4] (setting [8]), 11.5 ± 0.91 µM. In addition, in [6], the “Resistance Index” value is “≈1”. Further, the Hydrolysis rate result in the series “Hydrolysis rate by HPLC” is reported as “less than 2%”.

On to `N.N.O=C([O-])C1(C(=O)[O-])CCC1.[Pt+2]` [Carboplatin, carboplatin, reference compound], for which the half-inhibitory concentration (IC50) in series [1] (setting [7]) is 74.4 ± 2.51 µM; in [2] (A549, MTS, t = 48 h, n = 3), 141 ± 11.3 µM; in series [3] (SGC-7901, MTS, t = 48 h, n = 3), 127 ± 11.8 µM; in series [4] (setting [8]) it was 65.3 ± 3.55 µM.

For `N.N.[Cl][Pt][Cl]` [Cisplatin, cisplatin, reference compound], the IC50 in series [1] (setting [7]) stood at 11.7 ± 0.51 µM; in series [2] (A549, MTS, t = 48 h, n = 3), 14.8 ± 1.02 µM; in [6] it was 19.2 ± 0.94 µM; in [3] (SGC-7901, MTS, t = 48 h, n = 3) it was 13.6 ± 1.03 µM; in [4] (setting [9]) it was 5.15 ± 1.38 µM; in series [4] (setting [8]), 5.04 ± 0.25 µM. The “Apoptosis, % (mean ± SD)” value in [5] (12.5 μM) is 2.64 ± 1.43%; in series [5] (25 μM), 5.86 ± 1.30%; in [5] (50 μM), 38.93 ± 5.26%; in [5] (100 μM) it was 42.80 ± 3.40%; with A549 cells (A549, 12.5 μM) it was 20.09 ± 3.06%; in the series with A549 cells (A549, 25 μM) it was 32.84 ± 5.48%. In addition, the “Apoptosis, % (mean ± SD)” value with A549 cells (A549, 50 μM) is listed as 50.51 ± 6.42%; in the series on A549 cells (A549, 100 μM), 56.28 ± 6.91%. Moreover, in series [6], the “Resistance Index” value was “≈4”.

Take `N.NC1CCCC1.O=C1[O][Pt][O]C(=O)C12CC(O)C2` [Complex 1b]: the IC50 in [1] (setting [7]) worked out at 79.9 ± 2.57 µM; in series [2] (A549, MTS, t = 48 h, n = 3), 61.5 ± 7.98 µM; in series [3] (SGC-7901, MTS, t = 48 h, n = 3), 56.2 ± 4.88 µM; in series [4] (setting [8]) it was 74.2 ± 2.64 µM. The molecule also returned a Solubility in water in the series “Solubility in solvents” of more than 25 mg/mL.
